According to publication PMC11808397, “Development of selective nanomolar cyclic peptide ligands as GBA1 enzyme stabilisers” (RSC Chemical Biology, 2025):
Positions of bridges follow the written chain, without caps; N, C: chain ends. Non-standard residues stand in square brackets, D forms with d. Residues, ends and D or L forms follow the SMILES beside them.

Target: T1, GBA3 (Homo sapiens, UniProt Q9H227)
T1 construct: expressed in transfected cells
T1 sequence (Q9H227 1-469): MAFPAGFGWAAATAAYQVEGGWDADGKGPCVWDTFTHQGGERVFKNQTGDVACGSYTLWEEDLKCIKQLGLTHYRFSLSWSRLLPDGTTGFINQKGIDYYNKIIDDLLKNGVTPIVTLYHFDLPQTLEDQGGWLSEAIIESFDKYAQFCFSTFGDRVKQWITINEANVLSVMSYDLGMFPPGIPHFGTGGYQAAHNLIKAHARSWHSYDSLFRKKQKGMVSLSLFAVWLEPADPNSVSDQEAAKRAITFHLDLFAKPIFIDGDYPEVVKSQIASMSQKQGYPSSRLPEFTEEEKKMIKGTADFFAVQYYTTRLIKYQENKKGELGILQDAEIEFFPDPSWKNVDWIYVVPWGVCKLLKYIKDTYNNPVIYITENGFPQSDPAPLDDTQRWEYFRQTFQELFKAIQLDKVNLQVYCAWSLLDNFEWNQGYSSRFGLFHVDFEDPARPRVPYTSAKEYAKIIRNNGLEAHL
Experiment: GBA3 inhibition in overexpressing HEK293T lysates
Format: biochemical
Details: 100 mM HEPES, 4-MU substrate
Procedure: Based on the pull-down validation, a set of eight cyclic peptides (L1, L2, L4, L6, D1, D8, D12 and D13) were identified, synthesized, and evaluated for their inhibitory potency against recombinant human GBA1 (rhGBA1, Cerezyme®) and their selectivity over human β-glucosidases GBA2 and GBA3. Half-maximum inhibitory concentration (IC50) values for β-glucosidases were determined in vitro by measuring hydrolysis of 4-methylumbelliferyl-β-D-glucopyranoside (4-MU-β-D-Glu) fluorogenic substrate. […]
Pure product fractions were pooled, lyophilized, and dissolved again in DMSO before concentration was determined by A280 using a sample diluted in phosphate buffer at pH 7.4 and extinction coefficients determined from the sequence using the Expasy ProtParam online tool (https://web.expasy.org/protparam/). […]
2.5. In vitro IC50 and Ki measurements […]
nM) at 37 °C for 30 min. Following this, 100 µL of 4MU substrate was added and the samples were again incubated at 37 °C for 30 min. The reaction was quenched using excess 1 M NaOH-glycine (200 µL, pH 10.3) and 4MU fluorescence was measured using a LS55 fluorimeter (λEx 366 nm and λEm 445 […]
GBA2 and GBA3 IC50 values were determined following a similar protocol,5 using stable GBA2 or GBA3 HEK293T over-expression cell lysates and McIlvaine buffer pH 5.8 with 0.1 % BSA (w/v) and 100 mM HEPES with 0.1 % BSA, respectively. Covalent inhibitor of endogenous GBA1 (1 µM Bodipy green-cyclophellitol β-epoxide activity based probe) was added for both GBA2 and GBA3 assays, and GBA2 inhibitor N-(5-adamantane-1-yl-methoxy-pentyl)-deoxynojirimycin, AMP-DNM at 1 nM) was added for GBA3 assay. Cell lysates were pre-incubated with the aforementioned GBA1/GBA2 inhibitors for 30 min at 37 °C (12.5 µL) and subsequently incubated with the tested ligands at a range of concentrations for 30 min at 37 °C (12.5 µL), after which 100 µL 4MU-β-D-glucopyranoside was added for a final incubation of 30 min at 37 °C, quenched with 200 µL 1 M NaOH-glycine (pH 10.3) and fluorescence was measured. IC50 values were calculated using GraphPad Prism version 8.

IC50 [µM] | SMILES
> 100 | CC[C@H](C)[C@H](NC(=O)[C@H](CC(C)C)NC(=O)[C@H](Cc1ccc(O)cc1)NC(=O)[C@H](Cc1ccc(O)cc1)NC(=O)[C@@H]1CSCC(=O)N[C@H](Cc2ccc(O)cc2)C(=O)N[C@@H](CCCNC(=N)N)C(=O)N[C@@H](C(C)C)C(=O)N1)C(=O)N[C@H](C(=O)N[C@H](C(=O)N[C@@H](CC(C)C)C(=O)N[C@@H](CC(=O)O)C(=O)N[C@@H](CS)C(N)=O)C(C)C)[C@@H](C)O [D1] ({CH2CO}-[dY]RVCYYLITVLDC-NH2; thioether N-4)
> 100 | CC(C)C[C@@H]1NC(=O)CNC(=O)[C@H](Cc2ccccc2)NC(=O)[C@H](CC(C)C)NC(=O)[C@@H]2CCCN2C(=O)[C@H](Cc2ccc(O)cc2)NC(=O)CSC[C@@H](C(=O)N2CCC[C@H]2C(=O)N[C@@H](CC(N)=O)C(=O)N[C@@H](Cc2c[nH]c3ccccc23)C(=O)N[C@@H](Cc2ccccc2)C(=O)N2CCC[C@H]2C(=O)N[C@@H](Cc2ccc(O)cc2)C(=O)N[C@@H](CCC(N)=O)C(=O)N[C@@H](CS)C(N)=O)NC(=O)[C@H](CO)NC(=O)[C@H](Cc2ccccc2)NC1=O [L4] ({CH2CO}-YPLFGLFSCPNWFPYQC-NH2; thioether N-9)
> 100 | CC(C)C[C@H](NC(=O)[C@@H](NC(=O)[C@H](CCCNC(=N)N)NC(=O)[C@@H]1CSCC(=O)N[C@H](Cc2ccc(O)cc2)C(=O)N[C@@H]([C@@H](C)O)C(=O)N2CCC[C@H]2C(=O)NCC(=O)N[C@@H](Cc2ccc(O)cc2)C(=O)N[C@@H](C(C)C)C(=O)N[C@@H](Cc2ccc(O)cc2)C(=O)N1)C(C)C)C(=O)N[C@@H](CCCCN)C(=O)N[C@@H](Cc1ccc(O)cc1)C(=O)N[C@@H](CS)C(N)=O [D8] ({CH2CO}-[dY]TPGYVYCRVLKYC-NH2; thioether N-8)
> 100 | CC[C@H](C)[C@@H]1NC(=O)[C@H](Cc2ccc(O)cc2)NC(=O)CSC[C@@H](C(N)=O)NC(=O)[C@H](Cc2c[nH]c3ccccc23)NC(=O)[C@H](CCC(N)=O)NC(=O)[C@H]([C@@H](C)CC)NC(=O)[C@H]([C@@H](C)CC)NC(=O)[C@@H]2CCCN2C(=O)[C@H](C(C)C)NC(=O)[C@H](Cc2ccc(O)cc2)NC(=O)[C@H](Cc2c[nH]c3ccccc23)NC(=O)[C@H](CO)NC1=O [L6] ({CH2CO}-YISWYVPIIQWC-NH2; thioether N-12)
> 100 | CC[C@H](C)[C@H](NC(=O)[C@H](CCCNC(=N)N)NC(=O)[C@@H]1CSCC(=O)N[C@@H](Cc2ccc(O)cc2)C(=O)N[C@@H](C)C(=O)N[C@@H](Cc2ccc(O)cc2)C(=O)N[C@@H](Cc2c[nH]c3ccccc23)C(=O)N[C@@H](Cc2c[nH]c3ccccc23)C(=O)N[C@@H](CC(C)C)C(=O)N1)C(=O)N1CCC[C@H]1C(=O)N[C@@H](Cc1c[nH]c2ccccc12)C(=O)N[C@@H](CC(C)C)C(=O)N[C@@H](CO)C(=O)N[C@H](C(N)=O)C(C)C [L2] ({CH2CO}-YAYWWLCRIPWLSV-NH2; thioether N-7)
~85 | CC(C)C[C@@H]1NC(=O)CNC(=O)[C@H](CC(C)C)NC(=O)[C@@H](Cc2ccc(O)cc2)NC(=O)CSC[C@@H](C(N)=O)NC(=O)[C@H](CO)NC(=O)[C@H](CCCCN)NC(=O)[C@H](CC(C)C)NC(=O)[C@H](Cc2ccccc2)NC(=O)[C@H](CCCNC(=N)N)NC(=O)[C@H](Cc2ccc(O)cc2)NC(=O)[C@H](Cc2c[nH]c3ccccc23)NC1=O [D12] ({CH2CO}-[dY]LGLWYRFLKSC-NH2; thioether N-12)
> 100 | CC[C@H](C)[C@@H]1NC(=O)[C@H](CO)NC(=O)[C@H](CS)NC(=O)CNC(=O)CNC(=O)[C@H](CC(C)C)NC(=O)[C@H](Cc2ccc(O)cc2)NC(=O)[C@H](C(C)C)NC(=O)[C@H](CC(C)C)NC(=O)[C@H](CCCNC(=N)N)NC(=O)[C@@H]2CCCN2C(=O)[C@H](Cc2ccc(O)cc2)NC(=O)CSC[C@@H](C(N)=O)NC(=O)[C@H](CCC(=O)O)NC(=O)[C@H](CC(C)C)NC(=O)[C@H](CC(C)C)NC1=O [L1] ({CH2CO}-YPRLVYLGGCSILLEC-NH2; thioether N-16)
